Where two headings read alike, the source gives them in different places.
Experiments:
[1] = system: Lac; details: read-out: K m (mol L^-1) / Lac; 50 mM malonate pH 4.5
[2] = system: VP; details: read-out: K m (mol L^-1) / VP; 50 mM malonate pH 4.5, 0.1 mM H2O2, with or without 1 mM MnSO4 (not told per substrate)
[3] = system: T1, VP; test: spectrophotometric oxidation, […] nm; type: biochemical, Physisporinus vitreus; details: 50 mM malonate pH 4.5, 0.1 mM H2O2, with or without 1 mM MnSO4 (not told per substrate)
T1 construct: native secreted enzyme purified from solid corn stover cultures; single band

[4] = system: T1, VP; test: spectrophotometric oxidation, […] nm; type: biochemical, Physisporinus vitreus; details: 50 mM malonate pH 4.5, 0.1 mM H2O2, with or without 1 mM MnSO4 (not told per substrate); read-out: K m (mol L^-1) / VP
[5] = system: T2, Lac; test: spectrophotometric oxidation, […] nm; type: biochemical, Physisporinus vitreus; details: 50 mM malonate pH 4.5; read-out: K m (mol L^-1) / Lac
T2 construct: native secreted enzyme purified from solid corn stover cultures; single band

[6] = system: T1, VP; test: spectrophotometric oxidation, […] nm; type: biochemical, Physisporinus vitreus; details: 50 mM malonate pH 4.5, 0.1 mM H2O2, with or without 1 mM MnSO4 (not told per substrate); remark: listed apart in the source
[7] = system: T2, Lac; test: spectrophotometric oxidation, […] nm; type: biochemical, Physisporinus vitreus; details: 50 mM malonate pH 4.5; read-out: K m (mol L^-1) / Lac; remark: listed apart in the source
[8] = system: T1, VP; test: spectrophotometric oxidation, […] nm; type: biochemical, Physisporinus vitreus; details: 50 mM malonate pH 4.5, 0.1 mM H2O2, with or without 1 mM MnSO4 (not told per substrate); read-out: K m (mol L^-1) / VP; remark: listed apart in the source

SMILES: CCn1c(=NN=c2sc3cc(S(=O)(=O)O)ccc3n2CC)sc2cc(S(=O)(=O)O)ccc21 [ABTS]
- Km [1]: 13 µM
- Km [2]: 35 µM

SMILES: COc1ccc(CO)cc1OC [VA]
- Km [3]: 213 µM

SMILES: COc1ccccc1O [Guaiacol]
- Km [4]: 130 µM
- Km [5]: 900 µM

SMILES: Nc1c(N=Nc2ccc(S(=O)(=O)CCOS(=O)(=O)O)cc2)c(S(=O)(=O)O)cc2cc(S(=O)(=O)O)c(N=Nc3ccc(S(=O)(=O)CCOS(=O)(=O)O)cc3)c(O)c12 [RB5]
- Km [6]: 14.2 µM

SMILES: Cc1cccc(C)c1O [2,6-DMP]
- Km [7]: 280 µM
- Km [8]: 44 µM
